Assay results published in patent publication US8183005B1, “Pharmaceutical agents for treating HCV infections” (priority 2004, dated 2012).

Experiments:
Type in all cases: cell-based
in vitro = conditions: human, Huh-3-1 replicon cells, three days, Cell Counting Kit-8; read-out: Cytotoxicity CC50
Experimental: (§1) Firefly luciferase HCV replicon cells (Huh-3-1) suspended in Dulbecco's MEM (Gibco Cat. No. 10569) containing 5% fetal bovine serum (Hyclone Cat. No. SH30071.03) were plated onto a 96-well plate at 5000 cells/well, and cultured overnight under 5% CO2 at 37° C. Approximately 20 hours later, fumonisin B1 was added to a final concentration of 1.37 μM to 1000 μM by carrying out a sequential three-fold dilution, and the cells were then cultured for three more days. The assay was carried out by preparing two types of assay plates: one an opaque white plate and the other a transparent plate. After culturing, the white plate was subjected to the Steady-Glo Luciferase Assay System (Promega Cat. No. E2520). More specifically, 100 μL of reagent was added to each well, mixed three to four times using a pipette, and then stood for five minutes before luminescence was measured using 1450 MicroBeta TRILUX (WALLAC). IC50 (50% inhibitory concentration) of a pharmaceutical agent was calculated by subtracting the value obtained without adding the cells as the background value from all of the values, and then defining the level of inhibition without addition of the pharmaceutical agent as 0%. A Cell Counting Kit-8 (DOJINDO Laboratories, Cat. No. 341-07761) was used for the cytotoxicity assays. 10 μL of reagent was added to each well, mixed three to four times using a pipette, and then stood for approximately 30 minutes; measurements were performed when OD450 nm reached approximately 1.0. IC50 (50% inhibitory concentration) of a pharmaceutical agent was calculated by subtracting the value obtained without adding the cells as the background value from all of the values, and then defining the level of inhibition without addition of the pharmaceutical agent as 0%.
(§2) Based on the results of Example 5, the following method was used to measure the effect on cytotoxicity and HCV replicon activity under conditions in which Huh-3-1 cells show reduced LCB1 expression. More specifically, cells were plated onto a 96-well plate at 3500 cells per well, and cultured overnight under 5% CO2 at 37° C. 1.75 μL of 2 μM siRNA was added to 23.3 μL of ECR buffer (buffer included in the RNAiFect Kit), this was stirred vigorously, and then 0.31 μL of RNAiFect transfection reagent was added. This was stirred gently at room temperature and then allowed to stand for ten minutes. siRNA was added to a final concentration of 35 nM, and this was cultured for four days. The effect on cytotoxicity was determined by adding 10 μL of Cell Counting Kit-8 (DOJINDO Laboratories Cat. No. 341-07761) to the medium, mixing three to four times using a pipette, and then allowing this to stand for one hour at 37° C. Absorbance was then measured at 450 nm using a microplate reader Emax (Molecular Devices). After incubation, the medium was exchanged for fresh medium, and the plate was subjected to the Steady-Glo Luciferase Assay System (Promega Cat. No. E2520). 100 μL of reagent was added to each well, mixed three to four times using a pipette, and then allowed to stand for five minutes. Luminescence was then measured using 1450 MicroBeta TRILUX (WALLAC) to determine the HCV replicon activity. IC50 (50% inhibitory concentration) of a pharmaceutical agent was calculated by subtracting the value obtained without adding the cells as the background value from all of the values, and then defining the level of inhibition without addition of the pharmaceutical agent as 0%.
(§3) A Cell Counting Kit-8 (DOJINDO Laboratories, Cat. No. 341-07761) was used for the cytotoxicity assays. More specifically, 10 μL of Cell Counting Kit-8 was added to the transparent plate, and this was warmed at 37° C. for 30 to 60 minutes. Using a 96-well plate reader, absorbance was measured at a wavelength of 450 nm with a reference wavelength of 630 nm. […]

HCV replicon = HCV replicon assay (luciferase); conditions: for IC50: firefly luciferase HCV replicon cells (Huh-3-1), cultured three days with compound; for HCV replication (replicon activity) versus viable cell count: HCV replicon cells, 72 hours; for HCV replicon activity compared with control siRNA-treated cells: Huh-3-1 cells, siRNA 35 nM, four days
Experimental: as §1, §2
First, to quantify the copy number of HCV-RNA, an RNA was constructed such that a firefly-derived luciferase gene was introduced into the HCV-RNA as a reporter gene. According to the method of Krieger et al. (J. Virol., 75: 4614), the luciferase gene was introduced immediately after the Internal Ribosome Entry Site (IRES) of the HCV gene, so that the gene was fused with the neomycin-resistance gene. […]

Huh-3-1 cells = assay: in vitro; conditions: for CC50: Huh-3-1 replicon cells, three days, Cell Counting Kit-8, read-out: Cytotoxicity CC50; for effect of siRNA treatment on cytotoxicity: Huh-3-1 cells, siRNA 35 nM, four days
Experimental: as §1, §2, §3

HCV RNA replication = assay: Northern blot analysis of HCV RNA replication in Huh-3-1 replicon cells; conditions: Hepatitis C virus, 72 h, read-out: concentration reducing replicon RNA by 50%
Experimental: Cells were collected 72 hours later, total RNAs were extracted, and this was subjected to Northern blot analysis using a neomycin resistance gene as a probe according to the NorthernMax Kit method, available from Ambion.
The probes were labeled with biotin using a BrightStar Psoralen-Biotin Kit (Ambion #9860G3).
1 μg of the total RNAs were electrophoresed on a 1% agarose gel, and then the RNAs were stained with ethidium bromide. The resulting gel was photographed and decolorized, then NorthernMax transfer buffer was used for two hours to transfer the RNAs to the transfer membrane. While the membrane was still wet, the RNAs were fixed to the transfer membrane using a UV crosslinker. The membrane was pretreated in ULTRAhyb for 30 minutes at 42° C. while being rotated in a Hybridization oven. This pretreatment solution was then discarded, and the membrane was treated by adding the biotinylated neomycin resistance gene and 10 mL of ULTRAhyb solution, and then shaking overnight at 42° C.
The ULTRAhyb solution was then discarded, and 15 mL of High Stringency Buffer pre-warmed to 42° C. was added to the membrane, and this was shaken for 30 minutes at 42° C. This same operation was then repeated once. The transfer membrane was washed using enough wash buffer to soak the membrane. The transfer membrane was shaken in a blocking buffer for 30 minutes, then this solution was discarded. […]

HCV protein (NS3) = assay: Western blot analysis of HCV protein synthesis in Huh-3-1 replicon cells; conditions: Hepatitis C virus, 72 h, read-out: concentration reducing expression of HCV proteins by 50%
Experimental: After 72 hours, the culture medium was discarded, phosphate buffered saline (PBS) was added, and the cells were dislodged by pipetting and then collected by centrifugation. A lysis solution for phosphate (50 mM Tris-HCl (pH 7.5), 0.5% Triton, 3 mM EDTA, 150 mM NaCl, 12 mM glycerophosphate, 50 mM NaF, 1 mM Na3VO4, 0.5 mM PMSF, and 0.5 mM aporotinin) was added to the cells, the cells were disrupted by pipetting, and the supernatant was collected by high-speed centrifugation. A protein assay was carried out using Dye Reagent (Nacalai Tesque #074-27) (Bovine Gamma Globulin, Standard solution, BIO-RAD #500-0005). […] Rainbow molecular weight markers (Amersham Bioscience #RPN756) were used as molecular weight size markers. […] Western analysis was performed using a rabbit antibody against NS3, derived from an HCV protein. Anti-actin rabbit antibody was used as an internal standard.

[1] = system: LCB1 (a subunit of the SPT heterodimer); assay: Inhibition of LCB1 protein expression by siRNAs, Western blotting; conditions: Huh-3-1 cells, siRNA 35 nM, four days
Experimental: 1.2×10^5 Huh-3-1 cells were plated onto a 6-well plate, and the cells were cultured overnight under 5% at 37° C. 2.3 μL of 20 μM siRNA was added to 100 μL of ECR buffer (a buffer included in the RNAiFect Kit), this was stirred vigorously, and after the addition of 4 μL of RNAiFect transfection reagent (Qiagen Cat. No. 301605) this was stirred gently at room temperature and allowed to stand for ten minutes. siRNA was added to a final concentration of 35 nM, and this was cultured for four days.
The cells were suspended in a cell lysis buffer (50 mM Tris-HCl (pH 7.5), 0.5% Triton, 3 mM EDTA, 150 mM NaCl, 12 mM glycerophosphate, 50 mM NaF, 1 mM Na3VO4, 0.5 mM PMSF, 0.5 mM aporotinin), and were allowed to stand on ice for ten minutes. This was centrifuged at 15,000×g for ten minutes, and the supernatant was collected. After quantifying the protein, the amount of protein in each sample was adjusted to 10 μg, and this was added to ¼ volume of 5×SDS sample buffer (125 mM Tris-HCl (pH 6.5), 25% Glycerol, 5% SDS, 0.25% BPB, 5% 2-Mercaptoethanol) and treated for five minutes at 98° C. […] The membranes were washed with 0.1% Tween 20/PBS, and then reacted for one minute with ECL, and the resulting signals were detected by autoradiography.

CCCCCCCC(=O)CCCCCC/C=C/[C@H](C(=O)N[C@@H](Cc1ccc(C(F)(F)F)cc1)C(=O)O)[C@@](O)(CC(=O)O)C(=O)O [(18)]
CC50 (in vitro): > 1 µM | IC50 (HCV replicon; Hepatitis C virus, 72 h): 0.068 µM

CCCCCCCC(=O)CCCCCC/C=C/[C@H](C(=O)N[C@@H](Cc1ccc(C#N)cc1)C(=O)O)[C@@](O)(CC(=O)O)C(=O)O [(19)]
CC50 (in vitro): > 1 µM | IC50 (HCV replicon; Hepatitis C virus, 72 h): 0.012 µM

CCCCCCCC(=O)CCCCCC/C=C/[C@H](C(=O)N[C@@H](Cc1ccc(Cl)cc1)C(=O)O)[C@@](O)(CC(=O)O)C(=O)O [(20)]
CC50 (in vitro): > 1 µM | IC50 (HCV replicon; Hepatitis C virus, 72 h): 0.055 µM

CCCCCCCC(=O)CCCCCC/C=C/[C@H](C(=O)N[C@@H](Cc1ccc([N+](=O)[O-])cc1)C(=O)O)[C@@](O)(CC(=O)O)C(=O)O [(21)]
CC50 (in vitro): > 1 µM | IC50 (HCV replicon; Hepatitis C virus, 72 h): 0.08 µM

CCCCCCCC(=O)CCCCCC/C=C/[C@H](C(=O)N[C@@H](Cc1ccc(OCCCC)cc1)C(=O)O)[C@@](O)(CC(=O)O)C(=O)O [(26)]
CC50 (in vitro): > 1 µM

CC(C)CCOc1ccc(C[C@H](NC(=O)[C@@H](/C=C/CCCCCCC(=O)CCCCC2CCCCC2)[C@](O)(CC(=O)O)C(=O)O)C(=O)O)cc1 [(38)]
CC50 (Huh-3-1 cells): > 1 µM | IC50 (HCV replicon): 0.024 µM

CCCCCCCC(=O)CCCCCC/C=C/[C@H](C(=O)N[C@@H](Cc1ccc(OCC=C(C)C)cc1)C(=O)O)[C@@](O)(CC(=O)OC)C(=O)O [(41)]
CC50 (in vitro): > 1 µM

CCCCCCCC(=O)CCCCCC/C=C/[C@H](C(=O)N[C@@H](Cc1ccc(OCC=C(C)C)cc1)C(=O)OC)[C@@](O)(CC(=O)OC)C(=O)O [(42)]
CC50 (in vitro): > 1 µM

CCCCCCC(O)C(=O)CCCCCC/C=C/[C@H](C(=O)N[C@@H](Cc1ccc(O)cc1)C(=O)O)[C@@](O)(CC(=O)O)C(=O)O (stereo partly shown) [(43)]
CC50 (in vitro): > 1 µM

CCCCCCCC(=O)CCCCCC/C=C/[C@H](C(=O)N[C@@H](Cc1c[nH]c2ccccc12)C(=O)O)[C@@](O)(CC(=O)O)C(=O)O [(44)]
CC50 (in vitro): > 1 µM

CCCCCCC(O)C(=O)CCCCCC/C=C/[C@H](C(=O)N[C@@H](Cc1ccc(OCC=C(C)C)cc1)C(=O)O)[C@@](O)(CC(=O)O)C(=O)O (stereo partly shown) [(45)]
CC50 (in vitro): > 1 µM

CCCCCCCC(CCCCCC/C=C/[C@H](C(=O)N[C@@H](Cc1ccc(OCC=C(C)C)cc1)C(=O)O)[C@@](O)(CC(=O)O)C(=O)O)=NOC [(54)]
CC50 (in vitro): > 50 µM

CCCCCCCC(=O)CCCCCC/C=C/[C@H](C(=O)N[C@@H](Cc1ccc(OCCC(C)C)cc1)C(=O)O)[C@@](O)(CC(=O)O)C(=O)O [Compound (46)]
CC50 (in vitro): > 5 µM

CCCCCCCC(O)CCCCCC/C=C/[C@H](C(=O)N[C@@H](Cc1ccc(OCC=C(C)C)cc1)C(=O)O)[C@@](O)(CC(=O)O)C(=O)O (stereo partly shown) [Compound (47)]
CC50 (in vitro): > 5 µM

CCCCCCCC(=O)CCCCCC/C=C/[C@H](C(=O)N[C@@H](Cc1ccc(O)cc1)C(=O)O)[C@@](O)(CC(=O)O)C(=O)O [Compound (48)]
CC50 (in vitro): > 5 µM

CCCCCCCC(=O)CCCCCCCC[C@H](C(=O)N[C@@H](Cc1ccc(O)cc1)C(=O)O)[C@@](O)(CC(=O)O)C(=O)O [Compound (49)]
CC50 (in vitro): > 50 µM

CCCCCCCC(=O)CCCCCC/C=C/[C@H](C(=O)N[C@@H](Cc1ccc(OCC=C(C)C)cc1)C(N)=O)[C@@](O)(CC(N)=O)C(N)=O [Compound (50)]
CC50 (in vitro): > 5 µM

CCCCCCCC(=O)CCCCCC/C=C/[C@H](C(=O)N[C@@H](Cc1ccc(OCC=C(C)C)cc1)C(=O)O)[C@@](O)(CC(=O)O)C(=O)O [Compound (51)]
CC50 (Huh-3-1 cells): > 5 µM | IC50 (HCV replicon): 0.072 µM

CCCCCCCCCCCCCC/C=C/[C@H](C(=O)N[C@@H](Cc1ccc(OCC=C(C)C)cc1)C(=O)O)[C@@](O)(CC(=O)O)C(=O)O [Compound (52)]
CC50 (in vitro): > 50 µM | IC50 (HCV replicon; Hepatitis C virus, 72 h): 0.1 µM

CCCCCCCCCCCC(=O)N[C@@H](CO)C[C@H](O)c1ccccc1 [HPA-12, reference compound]
HCV replication (replicon activity) versus viable cell count (HCV replicon): suppressing the HCV replication at non-cytotoxic concentrations

CCCC[C@@H](C)[C@@H](OC(=O)C[C@@H](CC(=O)O)C(=O)O)[C@H](C[C@@H](C)C[C@H](O)CCCC[C@@H](O)C[C@H](O)[C@H](C)N)OC(=O)C[C@@H](CC(=O)O)C(=O)O [fumonisin B1, reference compound]
HCV replication (replicon activity) versus viable cell count (HCV replicon): suppressing the HCV replication at non-cytotoxic concentrations

CCCCCCC(=O)CCCCCC/C=C/C[C@@H](O)[C@H](O)[C@@](N)(CO)C(=O)O [myriocin]
IC50 (HCV RNA replication): 0.001 to 0.01 µM | HCV replication (replicon activity) versus viable cell count (HCV replicon): suppressing the HCV replication at non-cytotoxic concentrations | IC50 (HCV protein (NS3)): 0.001 to 0.01 µM

si246: siRNA targeting LCB1, a subunit of the SPT heterodimer; SEQ ID NO: 1 (CAUCGUUUCAGGCCCUCCATT; chemistry not given here)
LCB1 protein expression compared with control siRNA [1]: Particularly strong inhibition of expression | effect of siRNA treatment on cytotoxicity (Huh-3-1 cells): almost no effect | HCV replicon activity compared with control siRNA-treated cells (HCV replicon): strong inhibitory effect

si633: siRNA targeting LCB1, a subunit of the SPT heterodimer; SEQ ID NO: 2 (UGACAUGGCUGACCUCGAGTT; chemistry not given here)
LCB1 protein expression compared with control siRNA [1]: decrease the level of LCB1 protein expression | effect of siRNA treatment on cytotoxicity (Huh-3-1 cells): almost no effect | HCV replicon activity compared with control siRNA-treated cells (HCV replicon): significantly inhibited
